The values that follow come from ChEMBL document CHEMBL4706694, “Novel bicyclic pyrazoles as potent ALK2 (R206H) inhibitors for the treatment of fibrodysplasia ossificans progressiva” (Bioorg Med Chem Lett, 2021).

Series [1] concerns the target MDR1 (ABCB1, P-glycoprotein) (Homo sapiens, UniProt P08183). The experiment in a line: Substrate activity at human MDR1 expressed in MDCK-II cells assessed as apparent permeability across apical to basolateral membrane at 10 uM by LC-MS/MS analysis. Format: ADME, cell-based.
Series [2] can be described thus: Inhibition of ALK2 R206H in mouse C2C12 cells assessed as reduction in BMP-induced ALP activity using p-nitrophenyl phosphate as substrate.
A short description of series [3]: Metabolic stability in human liver microsomes assessed as parent compound remaining incubated for 60 mins in presence of NADPH by LC-MS/MS analysis. Format: ADME, Microsome. As to conditions: read-out: Stabilty. (In general: Liver microsomes are a subcellular fraction often used to study metabolism.)
The target of series [4] is hERG (KCNH2) (Homo sapiens, UniProt Q12809). The experiment in a line: Inhibition of human ERG at 10 uM by automated patch method relative to control.
A short description of series [5]: Metabolic stability in rat liver microsomes assessed as parent compound remaining incubated for 60 mins in presence of NADPH by LC-MS/MS analysis. Particulars: read-out: Stabilty.

A value given as a limit tells only on which side of the number the result lay.

Sequence of MDR1 (ABCB1, P-glycoprotein) (P08183 whole entry): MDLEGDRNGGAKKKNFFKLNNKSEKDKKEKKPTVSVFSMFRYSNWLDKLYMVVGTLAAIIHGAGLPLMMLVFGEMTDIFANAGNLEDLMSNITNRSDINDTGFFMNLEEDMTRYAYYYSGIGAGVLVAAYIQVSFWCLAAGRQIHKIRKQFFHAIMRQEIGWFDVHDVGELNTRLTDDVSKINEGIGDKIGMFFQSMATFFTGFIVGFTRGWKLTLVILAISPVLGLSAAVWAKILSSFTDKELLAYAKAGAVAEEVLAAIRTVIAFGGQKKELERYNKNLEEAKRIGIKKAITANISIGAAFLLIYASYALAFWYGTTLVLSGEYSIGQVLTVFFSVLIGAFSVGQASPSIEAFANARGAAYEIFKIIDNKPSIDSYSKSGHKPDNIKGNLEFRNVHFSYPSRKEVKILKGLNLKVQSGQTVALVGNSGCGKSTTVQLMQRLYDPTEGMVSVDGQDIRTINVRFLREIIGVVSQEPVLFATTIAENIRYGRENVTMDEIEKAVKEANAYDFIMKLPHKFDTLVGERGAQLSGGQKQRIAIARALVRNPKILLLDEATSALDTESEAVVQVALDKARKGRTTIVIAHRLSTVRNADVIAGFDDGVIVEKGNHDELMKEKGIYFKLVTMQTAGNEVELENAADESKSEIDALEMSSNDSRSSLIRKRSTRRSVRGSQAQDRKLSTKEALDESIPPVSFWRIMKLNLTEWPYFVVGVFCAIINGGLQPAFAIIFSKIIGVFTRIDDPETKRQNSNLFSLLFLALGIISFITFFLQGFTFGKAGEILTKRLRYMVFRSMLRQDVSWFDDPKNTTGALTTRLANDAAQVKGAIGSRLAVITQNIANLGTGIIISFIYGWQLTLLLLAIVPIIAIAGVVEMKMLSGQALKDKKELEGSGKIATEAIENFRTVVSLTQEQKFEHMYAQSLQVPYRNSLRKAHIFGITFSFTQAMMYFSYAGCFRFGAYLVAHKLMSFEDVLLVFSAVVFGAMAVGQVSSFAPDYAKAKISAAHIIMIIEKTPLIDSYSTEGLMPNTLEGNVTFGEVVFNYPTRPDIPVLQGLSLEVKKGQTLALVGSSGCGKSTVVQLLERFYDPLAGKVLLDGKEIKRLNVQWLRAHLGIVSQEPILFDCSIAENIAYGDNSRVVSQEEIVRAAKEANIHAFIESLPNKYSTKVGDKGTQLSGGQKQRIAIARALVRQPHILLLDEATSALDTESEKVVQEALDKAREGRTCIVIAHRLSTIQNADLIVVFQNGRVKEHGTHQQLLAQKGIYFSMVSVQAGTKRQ
Sequence of hERG (KCNH2) (Q12809 whole entry): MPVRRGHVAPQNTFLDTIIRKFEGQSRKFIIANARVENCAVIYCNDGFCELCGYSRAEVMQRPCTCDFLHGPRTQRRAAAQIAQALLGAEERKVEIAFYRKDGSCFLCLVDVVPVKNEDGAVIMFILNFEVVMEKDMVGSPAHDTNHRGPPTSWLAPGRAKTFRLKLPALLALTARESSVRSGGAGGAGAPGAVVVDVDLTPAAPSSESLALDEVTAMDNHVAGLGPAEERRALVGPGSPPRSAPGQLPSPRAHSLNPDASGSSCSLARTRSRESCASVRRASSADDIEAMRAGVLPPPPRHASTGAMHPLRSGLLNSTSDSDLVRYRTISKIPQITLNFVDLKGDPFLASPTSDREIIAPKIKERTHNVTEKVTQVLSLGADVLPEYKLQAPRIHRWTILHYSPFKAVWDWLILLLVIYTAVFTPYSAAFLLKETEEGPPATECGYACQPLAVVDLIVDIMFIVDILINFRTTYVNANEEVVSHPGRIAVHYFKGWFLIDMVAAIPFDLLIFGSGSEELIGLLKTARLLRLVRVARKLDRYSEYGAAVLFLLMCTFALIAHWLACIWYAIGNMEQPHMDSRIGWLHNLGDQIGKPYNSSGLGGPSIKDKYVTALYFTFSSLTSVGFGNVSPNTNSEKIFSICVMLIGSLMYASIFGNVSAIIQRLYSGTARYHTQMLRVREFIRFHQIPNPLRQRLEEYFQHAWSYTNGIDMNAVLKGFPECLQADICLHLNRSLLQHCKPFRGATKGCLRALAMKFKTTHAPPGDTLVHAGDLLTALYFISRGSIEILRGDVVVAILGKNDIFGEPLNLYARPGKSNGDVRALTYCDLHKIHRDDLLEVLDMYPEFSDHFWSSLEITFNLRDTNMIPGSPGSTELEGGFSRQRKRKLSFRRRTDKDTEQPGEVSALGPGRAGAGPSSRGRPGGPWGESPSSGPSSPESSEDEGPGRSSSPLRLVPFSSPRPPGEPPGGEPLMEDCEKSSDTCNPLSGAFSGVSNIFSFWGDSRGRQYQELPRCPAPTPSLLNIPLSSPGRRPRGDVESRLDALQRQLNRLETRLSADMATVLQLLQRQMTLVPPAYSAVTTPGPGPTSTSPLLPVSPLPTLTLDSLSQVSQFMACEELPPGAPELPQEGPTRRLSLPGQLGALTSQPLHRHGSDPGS

Take `c1cncc(-c2nn3c(c2-c2ccnc(Nc4ccc(N5CCNCC5)cc4)n2)COCC3)c1`: in series [1], the Papp A→B at 10 µM was 0.906 ×10⁻⁶ cm/s.
As to `COCCN1CCN(c2ccc(Nc3nccc(-c4c(-c5cccnc5)nn5c4COCC5)n3)cc2)CC1`, in series [1], the Papp A→B at 10 µM was determined as 8.69 ×10⁻⁶ cm/s. Also, the IC50 in series [2] is 37.3 nM. In addition, the remaining at 1 h in series [3] came out at 56%; in series [5], 40.5%. The same compound came in with an inhibition at 10 µM in series [4] of 3.6%.
As for `CN1CCN(c2ccc(Nc3nccc(-c4c(-c5cccnc5)nn5c4COCC5)n3)cc2)CC1`, in series [1], the Papp A→B at 10 µM came to 4.37 ×10⁻⁶ cm/s.
As for `COc1ccc(Nc2nccc(-c3c[nH]nc3-c3cccnc3)n2)cc1`, in series [2], the IC50 was greater than 100 nM. For the same compound, the values for the remaining at 1 h in series [3] and in series [5] were 14.8% and 2.1%, respectively.

By Papp A→B is commonly meant how fast a substance crosses the layer from the apical side. Broadly, the IC50 is the midpoint of a concentration-inhibition curve. For orientation: inhibition means the share of the control response that was lost under treatment. Read a low inhibition as a weak effect.
